Starred links: 1 amine or outer side, 2 acyl side, 3 side chain; linkers in the order of their positions; H or OH if unused. Residues, ends and D or L forms follow the SMILES beside them. Suc = O=C(CCC(=O)[*:2])[*:1]
Point of comparison: `C=C(CC(NC(=O)OC(C)(C)C)C(=O)OCC)CC(NC=O)(C(=O)OCC)C(=O)OCC` (stereo unspecified), melting point 68 °C. Against it:
- ClC=C(Cl)n1c2ccccc2c2ccccc21 — lower, 51 to 53 °C
- CC(C)(C)OC(=O)NC(CNC(=O)Nc1ccccc1)C(=O)OCc1ccccc1 (stereo unspecified) — lower, 48 to 50 °C
- Clc1cnc2c(COCn3cncn3)c(Cl)ccc2c1 — higher, 156 to 158 °C
- CCOC(=O)C(C)(C)Oc1cccc(Cc2ccc(C(F)(F)F)cc2)c1 — lower, 50 °C
- NC(CCO)C1(c2ccc(Cl)cc2)CCC1 (stereo unspecified) — higher, 98 to 99 °C
- COC(=O)C(=O)c1cc(Cl)c(OCCOc2ccc3ccccc3c2)c(Cl)c1 — higher, 120 to 121 °C
- C=CCn1c(CCl)nc(C(C)C)c1Sc1cccc(Cl)c1 — higher, 84 to 86 °C
- O=c1c(O)cn(-c2cccc(C(F)(F)F)c2)nc1-c1ccnn1-c1ccccc1 — higher, 246 to 248 °C
- COc1ccc(N(CCCCO)S(=O)(=O)c2c(F)c(F)c(F)c(F)c2F)cc1 — higher, 88 to 90 °C
- O=C(O)c1ccc(-c2ccc(OCc3ccccc3)cc2)cc1 — higher, > 300 °C
- CC(C)(C)C(NC(=O)Cc1ccc2ccccc2c1)NC(=NC#N)Nc1cccc2ncccc12 (stereo unspecified) — higher, 200 to 201 °C
- O=[N+]([O-])c1cc(CCC(O)=S)cc(O)c1O — higher, 91 to 93 °C
- COc1ccc(-c2cn3c(n2)-c2ccccc2CC3)cc1 — higher, 179 to 181 °C
- CCOC(=O)c1cnc2c3cc(NC(=O)Nc4ccccc4)ccc3c(C)cn2c1=O — higher, > 300 °C
- O=C1c2ccccc2-c2c1c1ccccc1c(=O)n2CCO — higher, 201 to 204 °C
- COC(=O)Nc1ccc(Br)cn1 — higher, 191 to 192 °C
- NC(CC(=O)O)C(=O)N1C(=O)c2ccc(C(=O)O)cc2C1=O (stereo unspecified) — higher, 242 to 243 °C
- NCc1ccc(Nc2ncnc3[nH]cc(C(=O)c4ccccc4)c23)cc1 — higher, 255 to 257 °C
- Cc1ccc(S(=O)(=O)NC(=O)C(C)(N)C(C)C)cc1 (stereo unspecified) — higher, 262 to 265 °C
- FC(F)(F)c1nnc(SCc2ccccc2Cl)s1 — lower, 36 to 37 °C
- CCC(=O)OC1(C(=O)C(O)OC(=O)C(NC(=O)OC(C)(C)C)C(C)C)CCC2C3CC(C)C4=CC(=O)C=CC4(C)C3C(O)CC21C (stereo unspecified) — higher, 110 to 130 °C
- C[C@]12CCC(=O)N[C@@H]1CCc1cc(-c3nccs3)ccc12 — higher, 206 to 207 °C
- COC1=C(OC)C(=O)C(CCCCC[C@H]2CC[C@H](O)CC2)=C(C)C1=O — lower, 49 to 51 °C
- CC1COc2c(OC3CCN(C)CC3)c(F)cc3c(=O)c(C(=O)O)cn1c23 (stereo unspecified) — higher, 234 to 238 °C
- O=C1Nc2ccc(Cl)cc2C2(c3ccccc3)NCCCN12 (stereo unspecified) — higher, 275 to 276 °C
- Cc1c(C(=O)Nc2ccc(N3CCC(N4CCOCC4)CC3)c([N+](=O)[O-])c2)cnn1-c1ccc(Cl)cc1 — higher, 195 to 200 °C
- COC(=O)c1cc2c3ccccc3n(C(=O)c3ccccc3)c2s1 — higher, 150 to 151 °C
- COC(=O)c1ccc2c(c1)OCC(=O)N2 — higher, 258 to 260 °C
- CSc1noc(-c2ccc(OCCCOc3ccccc3)cc2)c1C#N — higher, 121 to 123 °C
- COC(=O)c1cc(C)c(OCCNC(=O)C2Cc3ccccc3N2S(=O)(=O)c2ccc(-c3ccc(F)cc3)cc2)c(C)c1 (stereo unspecified) — higher, 91 °C
- CC(C)(C)[Si](C)(C)O[C@@H](CCCC(=O)N1C(=O)OC[C@@H]1Cc1ccccc1)c1ccc(F)cc1 — higher, 87.6 °C
- Cn1c(-c2ccccc2[N+](=O)[O-])nc2ccccc21 — higher, 132 to 134 °C
- NC(=S)c1nccn1Cc1cccs1 — higher, 152 to 153 °C
- CCOC(=O)CC(c1ccccc1)N(C(=O)CNC(=O)Nc1cccc(C)c1)c1ccccc1 (racemic) — higher, 146 °C
- CC(C)N(C(=O)n1nc(Oc2ccc(C(F)(F)F)cc2[N+](=O)[O-])cc1C(F)(F)F)C(C)C — higher, 118 to 120 °C
- CCCCCCCCCCCCNC(=O)c1cc(-c2cccc(C(F)(F)F)c2)c(OCC(=O)O)c(-c2cccc(C(F)(F)F)c2)c1 — higher, 154 to 158 °C
- CCOC(=O)CCCc1csc(NC(=O)NCc2ccccc2)n1 — higher, 157 °C
- CCC1(C)CCC(N)=CC1=O (stereo unspecified) — higher, 99 to 100 °C
- Nc1nc2cc(CO)ccc2n1Cc1cccc2cccnc12 — higher, > 260 °C
- CCOc1nc2ccccc2n2cc(C(=O)O)nc12 — higher, 220 to 222 °C
- CC(C)C(NC(=O)Cn1cccc(NC(=O)Oc2ccc(Cl)cc2)c1=O)C(=O)C(F)(F)F (stereo unspecified) — higher, 137 to 139 °C
- Cc1cc(Cl)cc2[nH]c(=O)c(=O)[nH]c12 — higher, > 250 °C
- CC(C)c1c(Sc2ccccc2)n(CC2CC=CC2)c(=O)[nH]c1=O — higher, 131 to 134 °C
- CN1CCN(c2ccc(C3CCC4(CCC4c4ccccc4)C(=O)N3c3ccccc3)cc2)CC1 (stereo unspecified) — higher, 166 to 168 °C
- Cc1cccc(N2CCN(CCc3c(C)nc4ccc(Cl)cn4c3=O)CC2)c1 — higher, 119 to 120 °C
- COc1nc(OC)nc(OC(C(=O)OCc2ccccc2)C(C)(C)C)n1 (stereo unspecified) — lower, 63 to 66 °C
- Cc1ccc2ccc(O)c(CC(=O)O)c2c1 — higher, 138 to 140 °C
- O=C(Nc1c(C(O)(C(F)(F)F)C(F)(F)F)ccc2ccccc12)c1ccc(I)cc1 — higher, 189 to 190 °C
- CCNC(=O)C1CCCN1C(=O)C(C)NC(=O)CCC(=O)O (stereo not drawn) (Suc-Ala-Pro-NHEt; configuration not given here) — higher, 139 to 141 °C
- COc1ccc(S(=O)(=O)C(CCCCc2ccccc2)C(=O)O)cc1OC (stereo unspecified) — higher, 114 to 116 °C
